Laboratory results published in US6365126B1, “Learning and short term memory defects with Neurofibromatosis 1 (NF1) expression” (Cold Spring Harbor Laboratory, priority 1997, dated 2002).
Where two headings read alike, the source gives them in different places.

Key:
[1] = test system: K^+ currents of body-wall muscle fibers; settings: cited from earlier work
[2] = test system: K^+ currents of body-wall muscle fibers; assay: Two-microelectrode voltage-clamp recording of PACAP38-induced responses, larval body-wall neuromuscular preparation; set-up: species or system Drosophila
Experimental: PACAP38-induced responses were recorded by the two-microelectrode voltage-clamp method from body-wall muscle fibers of larvae at the third instar (Zhong, Y., Nature, 375:588-592 (1995); Arimura, A. Regulatory Peptides, 37:287-303 (1992); Spengler, D. et al., Nature, 365:170-175 (1993); Jan, L. Y. et al., J. Physiol., 262:189-214 (1976); Wu, C.-F. et al., Science, 220:1076-1078 (1983); Stewart, B. A. et al., J. Comp. Physiol., 175:179-191 (1994)). Electrophysiological recording: The larval body-wall neuromuscular preparation has been described (Zhong, Y. et al., Neuron, 14:527-536 (1995); Zhong, Y., Nature, 375:588-592 (1995); Jan, L. Y. et al., J. Physiol., 262:189-214 (1976); Wu, C.-F. et al., Science, 220:1076-1078 (1983); Stewart, B. A. et al., J Comp Physiol., 175:179-191 (1994)). The setup, saline, recording conditions and voltage paradigms were as described (Zhong, Y. et al., Neuron, 14:527-536 (1995); Zhong, Y., Nature, 375:588-592 (1995)). For recording the PACAP38-induced synaptic current, the membrane potential was clamped at −80 mV. For recording K^+ currents, command voltages were stepped from the holding potential of −80 to −50 and +20 mV, respectively. […] PACAP38 was applied by pressure ejection through a glass electrode positioned near the voltage-clamped muscle membrane. Forskolin and cAMP analogs were applied to the solution bathing the preparation.

adenylyl cyclase = assay: Adenylyl cyclase activity assay, membrane fractions of adult brain tissues; assay type: biochemical, Drosophila; settings: GTPγS 20 μM
Experimental: The adenylyl cyclase activity assay described in Livingstone, M. S., Proc. Natl. Acad. Sci. USA, 82:5992-5996 (1985)) was modified as follows. The membrane fraction was extracted from either male heads with the cuticle removed to leave essentially brain tissue, or from 10 male abdomens. Twenty (20) dissected brains in 850 μl lysis buffer were homogenized, and the membrane fraction was extracted by centrifugation at 178,000 g for 10 minutes. GTPγS (final concentration, 20 μM) was added to stimulate G-protein activated adenylyl cyclase activity immediately after homogenization but before centrifugation. When assaying the basal level of adenylyl cyclase activity, GTPγS was not added. These modifications seemed to amplify the NF1 effect. Calcium concentrations were calculated according to MaxChelator v1.31 (Bers, D. M. et al., Methods. Cell. Biol., 40:3-29 (1994)). […] Biochemical assays provide direct evidence to support the electrophysiological data. Previous experiments have shown that Rut-AC expressed in a cell line can be stimulated not only by Ca^2+/calmodulin, but also by reagents that stimulate G-proteins, including GTPγS and AIF4^- (see Levin, L. R. et al., Cell, 68:479-489 (1992)). First, AC activity in membrane fractions of adult brain tissues was examined. […] Thus, GTPγS-stimulated AC activity consists of two components: one that is NF1-dependent and one that is NF1-independent.

CCCC(=O)Nc1ncnc2c1ncn2[C@@H]1O[C@@H]2COP(=O)(O)O[C@H]2[C@H]1OC(=O)CCC [dibutyryl cAMP]
PACAP38-like enhancement of K^+ currents by cAMP analog alone ([1]; larval neuromuscular preparation, no PACAP38): insufficient
effect of cAMP analog on the PACAP38 response ([2]; NF1 mutants (NF1^P2 homozygotes, NF1^P1/NF1^P2 larvae)): restore the normal response to PACAP38
effect of cAMP analog on the PACAP38 response ([2]; wild-type larvae): appeared not to disrupt the PACAP38 response

PACAP38
PACAP38-induced enhancement of K^+ currents ([1]; wild-type larvae, perfusion to the neuromuscular junction): 100 fold
PACAP38-induced enhancement of K^+ currents ([2]; Gap1 null mutants rI^533B1 and rI^533PB): normal enhancement
PACAP38-induced enhancement of K^+ currents ([2]; NF1^P1 and NF1^P2 mutant larvae): abolished
PACAP38-induced inward current ([2]; NF1^P1 and NF1^P2 mutant larvae, membrane potential clamped at -80 mV): remained mostly intact

Nc1nc2c(ncn2[C@@H]2O[C@H](COP(=O)(O)OP(=O)(O)OP(O)(O)=S)[C@@H](O)[C@H]2O)c(=O)[nH]1 [GTPγS]
GTPγS stimulated AC activity compared with control (K33) (adenylyl cyclase; NF1^P1 and NF1^P2 mutant membranes): markedly reduced
GTPγS-stimulated activity compared with the basal level (adenylyl cyclase; NF1 mutant membranes): significant GTPγS-stimulated activity occurred above the basal level
